Tests used:
S. aureus MN8 = assay type: cell-based, Staphylococcus aureus
[1] = system: TSST-1 production by S. aureus MN8; assay type: cell-based, Staphylococcus aureus
L. crispatus = L. crispatus growth and culture pH, 9 h assay; assay type: cell-based, Lactobacillus crispatus; conditions: data not shown; for Alteration of L. crispatus media pH compared to untreated controls: broth cultures, pH meter; for Effect on L. crispatus growth (CFUs/ml): human normal vaginal isolate, 9 h assay, plate counts on Todd Hewitt agar
Experimental: Cultures of a human normal vaginal isolate of L. crispatus were subjected to the same 9 hour assay as used to determine peptide antimicrobial effects on S. aureus. CFUs/ml were determined by dilution plate counts on Todd Hewitt agar (BD). The pHs of overnight broth cultures were also determined with use of a standard pH meter.

[2] = system: TSST-1 production by S. aureus MNPE; assay type: cell-based, Staphylococcus aureus
[3] = system: α-toxin production by S. aureus MNPE; assay type: cell-based, Staphylococcus aureus
S. aureus MNPE = assay type: cell-based, Staphylococcus aureus
[4] = system: IL-8 production by HVECs exposed to S. aureus MN8; assay type: cell-based, human
[5] = system: human vaginal epithelial cells (HVECs)

HNP-1: human defensin peptide purchased from Sigma-Aldrich
Antimicrobial activity against S. aureus (S. aureus MN8): no antimicrobial activity was observed
Reduction of S. aureus growth (S. aureus MN8): 1 log
Lowest dose giving complete inhibition of TSST-1 production [1]: 0.005 µg/mL

HNP-2: human defensin peptide purchased from Sigma-Aldrich (CYCRIPACIAGERRYGTCIYQGRLWAFCC)
Antimicrobial activity against S. aureus (S. aureus MN8): no antimicrobial activity was observed
Reduction of S. aureus growth (S. aureus MN8): 1 log
Lowest dose giving complete inhibition of TSST-1 production [1]: 0.005 µg/mL

Hbg-2: Hbg-1 peptide with scrambled sequence (STKPFFYFLHTQVKASPTSHDG)
Effect on S. aureus MN8 growth (CFUs/ml) (S. aureus MN8): not antimicrobial at any concentration tested
TSST-1 inhibition activity (in words) [1]: comparably active as Hbg-1
Alteration of L. crispatus media pH compared to untreated controls (L. crispatus): nor was alteration in media pH observed
Effect on L. crispatus growth (CFUs/ml) (L. crispatus): No inhibition of growth

SP-1: hemoglobin-like synthetic peptide, 0% positively-charged amino acids (SFPTTATYFPAFDLSAGSAQVA)
Effect on S. aureus MN8 growth (CFUs/ml) (S. aureus MN8): lacked antimicrobial
TSST-1 inhibition activity (in words) [1]: lacked antimicrobial (data not shown) and TSST-1 inhibition activity
TSST-1 inhibition activity (in words) [2]: lacked antimicrobial (data not shown) and TSST-1 inhibition activity
Inhibition of α-toxin production (in words) [3]: no inhibition of α-toxin production
Effect on S. aureus MNPE growth (S. aureus MNPE): lacked antimicrobial
Alteration of L. crispatus media pH compared to untreated controls (L. crispatus): nor was alteration in media pH observed
Effect on L. crispatus growth (CFUs/ml) (L. crispatus): No inhibition of growth

SP-2: hemoglobin-like synthetic peptide, 50% positively-charged amino acids (SKPKKKTYKPHKDLSHGSAKKK)
Effect on S. aureus MN8 growth (CFUs/ml) (S. aureus MN8): without affecting bacterial growth
TSST-1 inhibition activity (in words) [1]: showed the greatest TSST-1 inhibition activity
TSST-1 inhibition activity (in words) [2]: showed the greatest TSST-1 inhibition activity
Concentration at which inhibition of α-toxin production was shown [3]: 0.005 µg/mL
Effect on S. aureus MNPE growth (S. aureus MNPE): without affecting bacterial growth
Alteration of L. crispatus media pH compared to untreated controls (L. crispatus): nor was alteration in media pH observed
Effect on L. crispatus growth (CFUs/ml) (L. crispatus): No inhibition of growth
IL-8 production by HVECs incubated with MN8 and peptide [4]: 3.6 ± 7.2 pg/mL
Cytotoxicity to HVECs [5]: not cytotoxic

From publication PMC3991719 (PLoS ONE, 2014)
